Laboratory results from patent US9695155B2, “Herbicidal substituted pyrimidinyloxy benzene compounds” (E. I. DU PONT DE NEMOURS AND COMPANY, priority 2013, dated 2017).

What was measured:
wild buckwheat = experiment: Test D preemergence; type: in vivo, Polygonum convolvulus; details: Fallopia convolvulus, pre-emergence
Description: (§1) Seeds of plant species selected from bluegrass (annual bluegrass, Poa annua), blackgrass (Alopecurus myosuroides), canarygrass (littleseed canarygrass, Phalaris minor), chickweed (common chickweed, Stellaria media), galium (catchweed bedstraw, Galium aparine), bromegrass, downy (downy bromegrass, Bromus tectorum), field poppy (Papaver rhoeas), field violet (Viola arvensis), green foxtail (Setaria viridis), deadnettle (henbit deadnettle, Lamium amplexicaule), Italian ryegrass (Lolium multiflorum), kochia (Kochia scoparia), lambsquarters (Chenopodium album), oilseed rape (Brassica napus), pigweed (Amaranthus retroflexus), chamomile (scentless chamomile, Matricaria inodora), Russian thistle (Salsola kali), speedwell (bird's-eye speedwell, Veronica persica), spring barley (Hordeum vulgare), spring wheat (Triticum aestivum), wild buckwheat (Polygonum convolvulus), wild mustard (Sinapis arvensis), wild oat (Avena fatua), wild radish (Raphanus raphanistrum), windgrass (Apera spica-venti), winter barley (Hordeum vulgare), and winter wheat (Triticum aestivum) were planted into a silt loam soil and treated preemergence with test chemicals formulated in a non-phytotoxic solvent mixture which included a surfactant.
(§2) At the same time, these species were planted in pots containing Redi-Earth® planting medium (Scotts Company, 14111 Scottslawn Road, Marysville, Ohio 43041) comprising spaghnum peat moss, vermiculite, wetting agent and starter nutrients and treated with postemergence applications of the test chemicals formulated in the same manner. Plants ranged in height from 2 to 18 cm (1- to 4-leaf stage). Treated plants and controls were maintained in a controlled growth environment for 7 to 21 days after which time all species were compared to controls and visually evaluated. Plant response ratings, summarized in Table D, are based on a scale of 0 to 100 where 0 is no effect and 100 is complete control. A dash (-) response means no test result.

blackgrass [1] = experiment: Test D preemergence; type: in vivo, Alopecurus myosuroides; details: Alopecurus myosuroides, pre-emergence
Description: as §1, §2

chickweed = experiment: Test D postemergence; type: in vivo, Stellaria media; details: Stellaria media, post-emergence
Description: as §1, §2

windgrass = experiment: Test D preemergence; type: in vivo, Apera spica-venti; details: Apera spica-venti, pre-emergence
Description: as §1, §2

canarygrass = experiment: Test D preemergence; type: in vivo, Phalaris minor; details: Phalaris minor, pre-emergence
Description: as §1, §2

bluegrass = experiment: Test D preemergence; type: in vivo, Poa annua; details: Poa annua, pre-emergence
Description: as §1, §2

speedwell = experiment: Test D preemergence; type: in vivo, Veronica persica; details: Veronica persica, pre-emergence
Description: as §1, §2

pigweed = experiment: Test D postemergence; type: in vivo, Amaranthus retroflexus; details: Amaranthus retroflexus, post-emergence
Description: as §1, §2

blackgrass [2] = experiment: Test D postemergence; type: in vivo, Alopecurus myosuroides; details: Alopecurus myosuroides, post-emergence, Postemergence, scale 0 to 100 (0 no effect, 100 complete control), read-out: Plant response rating, Blackgrass
Description: as §1, §2

Q: Which pest or weed control at 16 g/ha (wild buckwheat; 16 g ai/ha, scale 0 (no effect) to 100 (complete control), read-out: Plant response rating, Buckwheat, Wild) does the source give for `Fc1cccc(Oc2ncc(Cl)cn2)c1-n1cc(Br)cn1` [Compound 178, 2-[2-(4-bromo-1H-pyrazol-1-yl)-3-fluorophenoxy]-5-chloropyrimidine] here?
A: The pest or weed control at 16 g/ha was 15%.

Q: What about the pest or weed control at 31 g/ha (wild buckwheat; 31 g ai/ha, scale 0-100, read-out: Plant response rating, Buckwheat, Wild) of the same compound?
A: The pest or weed control at 31 g/ha was 55%.

Q: And the pest or weed control at 62 g/ha (wild buckwheat; 62 g ai/ha, scale 0-100, read-out: Plant response rating, Buckwheat, Wild)?
A: The pest or weed control at 62 g/ha was 100%.

Q: What about the pest or weed control at 125 g/ha (wild buckwheat; 125 g ai/ha, scale 0-100, read-out: Plant response rating, Buckwheat, Wild) of the same compound?
A: The pest or weed control at 125 g/ha was 100%.

Q: And the pest or weed control at 16 g/ha (blackgrass [1]; 16 g ai/ha, scale 0 (no effect) to 100 (complete control), read-out: Plant response rating, Blackgrass)?
A: Its pest or weed control at 16 g/ha is 5%.

Q: And the pest or weed control at 31 g/ha (blackgrass [1]; 31 g ai/ha, scale 0-100, read-out: Plant response rating, Blackgrass)?
A: Its pest or weed control at 31 g/ha is 10%.

Q: And the pest or weed control at 62 g/ha (blackgrass [1]; 62 g ai/ha, scale 0-100, read-out: Plant response rating, Blackgrass)?
A: Its pest or weed control at 62 g/ha is 35%.

Q: What about the pest or weed control at 125 g/ha (blackgrass [1]; 125 g ai/ha, scale 0-100, read-out: Plant response rating, Blackgrass) of the same compound?
A: Its pest or weed control at 125 g/ha is 85%.

Q: And the pest or weed control at 16 g/ha (chickweed; 16 g ai/ha, scale 0-100, read-out: Plant response rating, Chickweed)?
A: Its pest or weed control at 16 g/ha is 55%.

Q: And the pest or weed control at 31 g/ha (chickweed; 31 g ai/ha, scale 0 to 100 (0 no effect, 100 complete control), read-out: Plant response rating, Chickweed)?
A: Its pest or weed control at 31 g/ha is 60%.

Q: What about the pest or weed control at 62 g/ha (chickweed; 62 g ai/ha, scale 0 to 100 (0 no effect, 100 complete control), read-out: Plant response rating, Chickweed) of the same compound?
A: The pest or weed control at 62 g/ha was 65%.

Q: What about the pest or weed control at 125 g/ha (chickweed; 125 g ai/ha, scale 0 to 100 (0 no effect, 100 complete control), read-out: Plant response rating, Chickweed) of the same compound?
A: Its pest or weed control at 125 g/ha is 75%.

Q: And the pest or weed control at 16 g/ha (windgrass; 16 g ai/ha, scale 0 (no effect) to 100 (complete control), read-out: Plant response rating, Windgrass)?
A: Its pest or weed control at 16 g/ha is 75%.

Q: And the pest or weed control at 31 g/ha (windgrass; 31 g ai/ha, scale 0 (no effect) to 100 (complete control), read-out: Plant response rating, Windgrass)?
A: The pest or weed control at 31 g/ha was 75%.

Q: What about the pest or weed control at 62 g/ha (windgrass; 62 g ai/ha, scale 0-100, read-out: Plant response rating, Windgrass) of the same compound?
A: Its pest or weed control at 62 g/ha is 70%.

Q: What about the pest or weed control at 125 g/ha (windgrass; 125 g ai/ha, scale 0-100, read-out: Plant response rating, Windgrass) of the same compound?
A: Its pest or weed control at 125 g/ha is 95%.

Q: And the pest or weed control at 16 g/ha (canarygrass; 16 g ai/ha, scale 0 (no effect) to 100 (complete control), read-out: Plant response rating, Canarygrass)?
A: Its pest or weed control at 16 g/ha is 10%.

Q: And the pest or weed control at 31 g/ha (canarygrass; 31 g ai/ha, scale 0-100, read-out: Plant response rating, Canarygrass)?
A: Its pest or weed control at 31 g/ha is 60%.

Q: What about the pest or weed control at 62 g/ha (canarygrass; 62 g ai/ha, scale 0-100, read-out: Plant response rating, Canarygrass) of the same compound?
A: Its pest or weed control at 62 g/ha is 60%.

Q: And the pest or weed control at 125 g/ha (canarygrass; 125 g ai/ha, scale 0-100, read-out: Plant response rating, Canarygrass)?
A: Its pest or weed control at 125 g/ha is 95%.

Q: And the pest or weed control at 16 g/ha (bluegrass; 16 g ai/ha, scale 0 (no effect) to 100 (complete control), read-out: Plant response rating, Bluegrass)?
A: The pest or weed control at 16 g/ha was 0%.

Q: What about the pest or weed control at 31 g/ha (bluegrass; 31 g ai/ha, scale 0-100, read-out: Plant response rating, Bluegrass) of the same compound?
A: Its pest or weed control at 31 g/ha is 10%.

Q: And the pest or weed control at 62 g/ha (bluegrass; 62 g ai/ha, scale 0-100, read-out: Plant response rating, Bluegrass)?
A: The pest or weed control at 62 g/ha was 20%.

Q: And the pest or weed control at 125 g/ha (bluegrass; 125 g ai/ha, scale 0-100, read-out: Plant response rating, Bluegrass)?
A: Its pest or weed control at 125 g/ha is 70%.

Q: What about the pest or weed control at 16 g/ha (speedwell; 16 g ai/ha, scale 0 (no effect) to 100 (complete control), read-out: Plant response rating, Speedwell) of the same compound?
A: Its pest or weed control at 16 g/ha is 100%.

Q: And the pest or weed control at 31 g/ha (speedwell; 31 g ai/ha, scale 0 (no effect) to 100 (complete control), read-out: Plant response rating, Speedwell)?
A: The pest or weed control at 31 g/ha was 100%.

Q: What about the pest or weed control at 62 g/ha (speedwell; 62 g ai/ha, scale 0-100, read-out: Plant response rating, Speedwell) of the same compound?
A: The pest or weed control at 62 g/ha was 100%.

Q: And the pest or weed control at 125 g/ha (speedwell; 125 g ai/ha, scale 0-100, read-out: Plant response rating, Speedwell)?
A: The pest or weed control at 125 g/ha was 100%.

Q: What about the pest or weed control at 16 g/ha (pigweed; 16 g ai/ha, scale 0-100, read-out: Plant response rating, Pigweed) of the same compound?
A: Its pest or weed control at 16 g/ha is 75%.

Q: What about the pest or weed control at 31 g/ha (pigweed; 31 g ai/ha, scale 0 to 100 (0 no effect, 100 complete control), read-out: Plant response rating, Pigweed) of the same compound?
A: Its pest or weed control at 31 g/ha is 80%.

Q: What about the pest or weed control at 62 g/ha (pigweed; 62 g ai/ha, scale 0 to 100 (0 no effect, 100 complete control), read-out: Plant response rating, Pigweed) of the same compound?
A: Its pest or weed control at 62 g/ha is 85%.

Q: And the pest or weed control at 125 g/ha (pigweed; 125 g ai/ha, scale 0 to 100 (0 no effect, 100 complete control), read-out: Plant response rating, Pigweed)?
A: Its pest or weed control at 125 g/ha is 90%.

Q: What about the pest or weed control at 62 g/ha (blackgrass [2]; 62 g ai/ha) of the same compound?
A: The pest or weed control at 62 g/ha was 25%.

Q: And the pest or weed control at 16 g/ha (blackgrass [2]; 16 g ai/ha)?
A: Its pest or weed control at 16 g/ha is 5%.

Q: And the pest or weed control at 31 g/ha (blackgrass [2]; 31 g ai/ha)?
A: The pest or weed control at 31 g/ha was 10%.
